Tests used:
Test in all cases: relative viability (nuclei count vs DMSO), 5 days (fraction); higher = more cells survive
VE-821 + Tozasertib = compound: CS(=O)(=O)c1ccc(-c2cnc(N)c(C(=O)Nc3ccccc3)n2)cc1 [VE-821] + Cc1cc(Nc2cc(N3CCN(C)CC3)nc(Sc3ccc(NC(=O)C4CC4)cc3)n2)n[nH]1 [Tozasertib] (partner 0.1 µM)
Outline: (§1)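 Relative viability equals treated-well nuclei counts divided by vehicle-well nuclei counts. Counts came from 4× images of lung cancer cell lines grown in 1536-well plates for 5 days after pin-tool dosing on the day after seeding. Dosing used one drug alone or a fixed anchor-drug dose plus five library-drug doses (not always all listed) in √10 steps, and values are medians of duplicate plates.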

VE-821 + Vorinostat = compound: CS(=O)(=O)c1ccc(-c2cnc(N)c(C(=O)Nc3ccccc3)n2)cc1 [VE-821] + O=C(CCCCCCC(=O)Nc1ccccc1)NO [Vorinostat] (partner 1 µM)
Outline: as §1

Vismodegib + Linsitinib = compound: CS(=O)(=O)c1ccc(C(=O)Nc2ccc(Cl)c(-c3ccccn3)c2)c(Cl)c1 [Vismodegib] + C[C@]1(O)C[C@@H](c2nc(-c3ccc4ccc(-c5ccccc5)nc4c3)c3c(N)nccn32)C1 [Linsitinib] (partner 1 µM)
Outline: as §1

Ruxolitinib + Phenformin = compound: N#CC[C@H](C1CCCC1)n1cc(-c2ncnc3[nH]ccc23)cn1 [Ruxolitinib] + N=C(N)NC(=N)NCCc1ccccc1 [Phenformin] (partner 250 µM)
Outline: as §1

Cell Line | relative viability (VE-821 + Tozasertib; first compound 0.08 µM) | relative viability (VE-821 + Tozasertib; first compound 0.253 µM) | relative viability (VE-821 + Tozasertib; first compound 0.8 µM) | relative viability (VE-821 + Tozasertib; first compound 2.53 µM) | relative viability (VE-821 + Tozasertib; first compound 8 µM) | relative viability (VE-821 + Vorinostat; first compound 0.08 µM) | relative viability (VE-821 + Vorinostat; first compound 0.253 µM) | relative viability (VE-821 + Vorinostat; first compound 0.8 µM) | relative viability (VE-821 + Vorinostat; first compound 2.53 µM) | relative viability (VE-821 + Vorinostat; first compound 8 µM) | relative viability (Vismodegib + Linsitinib; first compound 0.08 µM) | relative viability (Vismodegib + Linsitinib; first compound 0.253 µM) | relative viability (Vismodegib + Linsitinib; first compound 0.8 µM) | relative viability (Vismodegib + Linsitinib; first compound 2.53 µM) | relative viability (Vismodegib + Linsitinib; first compound 8 µM) | relative viability (Ruxolitinib + Phenformin; first compound 0.08 µM) | relative viability (Ruxolitinib + Phenformin; first compound 0.253 µM) | relative viability (Ruxolitinib + Phenformin; first compound 0.8 µM) | relative viability (Ruxolitinib + Phenformin; first compound 2.53 µM) | relative viability (Ruxolitinib + Phenformin; first compound 8 µM)
201T | 1.04 | 0.988 | 0.896 | 0.929 | 0.636 | 0.991 | 0.947 | 0.992 | 1.01 | 0.752 | 0.954 | 1.09 | 1 | 0.978 | 1.01 | 0.44 | 0.455 | 0.473 | 0.429 | 0.503
A549 | – | – | – | – | – | – | – | – | – | – | 0.537 | 0.566 | 0.448 | 0.526 | 0.615 | 0.0714 | 0.144 | 0.198 | 0.127 | 0.15
A-427 | 0.231 | 0.186 | 0.217 | 0.192 | 0.144 | 0.872 | 0.795 | 0.83 | 0.806 | 0.51 | 1.12 | 1.09 | 1.11 | 1.11 | 1.12 | 0.291 | 0.3 | 0.338 | 0.281 | 0.276
ABC-1 | 0.201 | 0.17 | 0.15 | 0.181 | 0.16 | 1.32 | 1.06 | 1.11 | 1.26 | 1.01 | 0.666 | 0.682 | 0.79 | 0.821 | 0.794 | – | 0.282 | 0.316 | 0.287 | 0.294
BEN | 0.591 | 0.579 | 0.495 | 0.631 | 0.589 | 0.557 | 0.597 | 0.529 | 0.587 | 0.594 | 0.951 | 0.939 | 0.929 | 0.964 | 0.99 | 0.232 | 0.281 | 0.244 | 0.239 | 0.255
CAL-12T | 0.307 | 0.227 | 0.189 | 0.207 | 0.147 | 0.931 | 0.762 | 0.826 | 0.833 | 0.686 | 0.927 | 0.765 | 0.95 | 0.722 | 0.679 | 0.437 | 0.674 | 0.596 | 0.444 | 0.408
COR-L23 | 0.195 | 0.168 | 0.131 | 0.142 | 0.14 | 0.418 | 0.561 | 0.36 | 0.373 | 0.157 | 0.934 | 0.812 | 0.972 | 0.859 | 1.1 | 0.457 | 0.407 | 0.45 | 0.439 | 0.354
COR-L 105 | 0.37 | 0.373 | 0.374 | 0.284 | 0.333 | 0.865 | 0.883 | 0.638 | 0.718 | 0.56 | 0.781 | 0.978 | 0.965 | 1.01 | 0.849 | 0.409 | 0.495 | 0.425 | 0.392 | 0.374
Calu-6 | – | – | – | – | – | – | – | – | – | – | 1 | 0.9 | 0.952 | 0.904 | 1.02 | – | – | – | – | –
ChaGo-K-1 | 0.219 | 0.248 | 0.219 | 0.201 | 0.22 | 0.769 | 0.747 | 0.734 | 0.803 | 0.682 | – | – | – | – | – | 0.45 | 0.401 | 0.414 | 0.449 | 0.446
EBC-1 | – | – | – | – | – | – | – | – | – | – | 0.871 | 0.901 | 0.981 | 0.778 | 0.883 | – | – | – | – | –
EKVX | 0.45 | 0.346 | 0.352 | 0.39 | 0.309 | 0.961 | 0.665 | 0.707 | 0.81 | 0.452 | 0.949 | 1.04 | 0.929 | 0.894 | 0.989 | 0.275 | 0.209 | 0.204 | 0.221 | 0.235
EMC-BAC-2 | 0.344 | 0.306 | 0.322 | 0.253 | 0.277 | 0.495 | 0.423 | 0.431 | 0.416 | 0.338 | 0.785 | 0.803 | 0.914 | 0.776 | 0.82 | 0.534 | 0.471 | 0.555 | 0.44 | 0.353
EPLC-272H | 0.363 | 0.26 | 0.374 | 0.211 | 0.154 | 0.575 | 0.378 | 0.332 | 0.428 | 0.157 | 1.24 | 1.18 | 0.986 | 1.04 | 1.1 | 0.297 | 0.323 | 0.306 | 0.278 | 0.269
H3255 | 0.74 | 0.777 | 0.633 | 0.639 | 0.612 | 0.953 | 0.742 | 0.915 | 0.772 | 0.805 | 0.967 | 0.88 | 1 | 0.959 | 0.897 | 0.232 | 0.339 | 0.289 | 0.295 | 0.405
HARA | 0.109 | 0.111 | 0.106 | 0.112 | 0.0878 | 0.6 | 0.472 | 0.624 | 0.633 | 0.708 | 0.844 | 0.944 | 0.76 | 0.967 | 1.04 | 0.431 | 0.536 | 0.516 | 0.391 | 0.319
HCC-15 | 0.451 | 0.361 | 0.322 | 0.347 | 0.309 | 0.954 | 0.868 | 0.901 | 0.943 | 0.934 | 0.896 | 0.876 | 0.834 | 1.01 | 0.897 | 0.423 | 0.444 | 0.494 | 0.393 | 0.399
HCC-44 | 1.08 | 0.865 | 0.841 | 0.907 | 0.708 | 1.07 | 1.07 | 1.12 | 1.15 | 1.09 | 0.668 | 0.581 | 0.66 | 0.715 | 0.71 | 0.103 | 0.143 | 0.228 | 0.168 | 0.216
